Activity calls are given as the source filed them. No cut-off for these calls is given here.
Key:
Plasmodium falciparum [1] = assay: Antimalarial activity against […] infected in human RBC assessed as inhibition of plasmodial growth at 1 uM by SYBR green dye based spectrofluorometric analysis relative to control; assay type: functional; conditions: 3D7, Erythrocyte
Plasmodium falciparum [2] = assay: Antimalarial activity against […] infected in human RBC assessed as inhibition of plasmodial growth at 10 uM by SYBR green dye based spectrofluorometric analysis relative to control; assay type: functional; conditions: 3D7, Erythrocyte
Plasmodium falciparum [3] = assay: Antiplasmodial activity against […] incubated for 90 hrs by SYBR green I dye based analysis; assay type: functional, organism-based; conditions: 3D7, 90 h
[4] = Cytotoxicity against human U-937 cells assessed as reduction in cell viability incubated for 24 hrs by MTT assay; assay type: toxicity, cell-based
[5] = Cytotoxicity against human HepG2 cells; assay type: toxicity, cell-based
Plasmodium falciparum [6] = assay: Antimalarial activity against chloroquine-sensitive synchronized late stage trophozoite Plasmodium falciparum 3D7 infected in human RBC assessed as inhibition of plasmodial growth by giemsa staining based analysis; assay type: functional, organism-based; conditions: 3D7, Erythrocyte
Plasmodium falciparum [7] = assay: Antimalarial activity against chloroquine-resistant synchronized late stage trophozoite Plasmodium falciparum RKL-9 infected in human RBC assessed as inhibition of plasmodial growth by giemsa staining based analysis; assay type: functional, organism-based; conditions: RKL-9, Erythrocyte
Plasmodium falciparum [8] = assay: Antimalarial activity against chloroquine-resistant Plasmodium falciparum RKL-9 infected in human RBC assessed as reduction of plasmodial growth by SYBR green dye based spectrofluorometric analysis; assay type: functional, organism-based
Erythrocyte = assay: Hemolytic activity in human RBC assessed as hemolysis upto 5 uM incubated for 2 hrs; assay type: toxicity, cell-based
[9] = Therapeutic index, ratio of CC50 for human HepG2 cells to IC50 for chloroquine-sensitive synchronized late stage trophozoite Plasmodium falciparum 3D7 infected in human RBC; assay type: toxicity; conditions: read-out: TI
[10] = Cytotoxicity against […] cell upto 500 uM; assay type: toxicity, cell-based; conditions: human
Plasmodium falciparum [11] = assay: Antiplasmodial activity against synchronized ring stage Plasmodium falciparum 3D7 infected in human RBC assessed as reduction in transformation into pyknotic trophozoites by measuring delay in ring maturation at IC50 concentration measured after 60 hrs by giemsa staining based light microscopic analysis; assay type: functional, organism-based
Plasmodium falciparum [12] = assay: Induction of mitochondrial membrane depolarization in trophozoite stage Plasmodium falciparum 3D7 infected in human RBC assessed as increase in green fluorescence at IC50 concentration incubated for 3 hrs by JC-1 dye based fluorescence microscopic analysis; assay type: functional, organism-based
Plasmodium falciparum [13] = assay: Induction of mitochondrial membrane depolarization in trophozoite stage Plasmodium falciparum 3D7 infected in human RBC assessed as decrease in red to green fluorescence ratio at IC50 concentration incubated for 3 hrs by JC-1 dye based fluorescence microscopic analysis; assay type: functional, organism-based
Plasmodium falciparum [14] = assay: Synergistic antimalarial activity against synchronized ring stage Plasmodium falciparum 3D7 infected in human RBC assessed as mean fractional inhibitory concentration at 1:4 ratio of ART to compound incubated for 72 hrs by giemsa staining based flow cytometric analysis; assay type: functional
Plasmodium falciparum [15] = assay: Antiplasmodial activity against Plasmodium falciparum 3D7; assay type: functional, organism-based
Plasmodium falciparum [16] = assay: Antiplasmodial activity against synchronized ring stage Plasmodium falciparum 3D7 infected in human RBC assessed as reduction in parasitemia percentage by measuring defect in invasion stage at IC50 concentration measured after 60 hrs by giemsa staining based light microscopic analysis; assay type: functional, organism-based
Plasmodium falciparum [17] = assay: Antiplasmodial activity against synchronized ring stage Plasmodium falciparum 3D7 infected in human RBC assessed as reduction in parasitemia percentage by measuring defect in egress stage at IC50 concentration measured after 60 hrs by giemsa staining based light microscopic analysis; assay type: functional, organism-based
Plasmodium falciparum [18] = assay: Induction of mitochondrial membrane depolarization in trophozoite stage Plasmodium falciparum 3D7 infected in human RBC assessed as red to green fluorescence ratio at IC50 concentration incubated for 3 hrs by JC-1 dye based spectrofluorometric analysis (reference value: 6.96+/-0.94); assay type: functional
Plasmodium falciparum [19] = assay: Synergistic antimalarial activity against synchronized ring stage Plasmodium falciparum 3D7 infected in human RBC assessed as mean fractional inhibitory concentration at 2:3 ratio of ART to compound incubated for 72 hrs by giemsa staining based flow cytometric analysis; assay type: functional
Plasmodium falciparum [20] = assay: Binding affinity to recombinant N-terminal 6His tagged Plasmodium falciparum alpha-1 tubulin expressed in Escherichia coli BL21 assessed as dissociation constant at 0.78 to 75 uM by SPR analysis; conditions: dose 0.78-75 µM
Plasmodium falciparum [21] = assay: Binding affinity to recombinant N-terminal 6His tagged Plasmodium falciparum beta-tubulin expressed in Escherichia coli BL21 at 0.78 to 75 uM by SPR analysis; conditions: dose 0.78-75 µM
Plasmodium falciparum [22] = assay: Binding affinity to recombinant N-terminal 6His tagged Plasmodium falciparum alpha-1 tubulin expressed in Escherichia coli BL21 assessed as thermo-stabilization incubated at 4 to 80 degreeC for 3 mins followed by 5 mins incubation at room temperature by thermal shift assay; conditions: time 8.0 min
Plasmodium berghei [23] = assay: Antimalarial activity against Plasmodium berghei ANKA in BALB/c mouse injected with parasite infected erythrocytes assessed as decrease in parasite load at 30 mg/kg, ip administered daily for 7 days relative to control; assay type: functional; design: scale not given: the % may be the effect or the level left; conditions: time 7 day
Plasmodium berghei [24] = assay: Antimalarial activity against Plasmodium berghei ANKA in BALB/c mouse injected with parasite infected erythrocytes assessed as reduction in parasitemia at 30 mg/kg, ip administered daily for 7 days and measured after 15 days; assay type: functional, organism-based; conditions: time 15.0 day
Plasmodium berghei [25] = assay: Antimalarial activity against Plasmodium berghei ANKA in BALB/c mouse injected with parasite infected erythrocytes assessed as […] mean survival time at 30 mg/kg, ip administered daily for 7 days and measured after 15 days; assay type: functional; conditions: time 15 day

CCC(C)[C@H](c1nc2ccccc2n1Cc1cn(-c2c(F)c(F)c(F)c(F)c2F)nn1)N1C(=O)c2ccc(C)cc2C1=O (stereo partly specified)
inhibition at 1 µM (Plasmodium falciparum [1]): -4%
inhibition at 10 µM (Plasmodium falciparum [2]): 95%

CC(C)C[C@H](c1nc2ccccc2n1Cc1cn(-c2ccc(C(F)(F)F)cc2)nn1)N1C(=O)c2ccccc2C1=O
inhibition at 1 µM (Plasmodium falciparum [1]): -53%
inhibition at 10 µM (Plasmodium falciparum [2]): 88%

CCC(C)C(c1nc2ccccc2n1Cc1c[nH]nn1)N1C(=O)c2ccccc2C1=O (stereo unspecified)
IC50 (Plasmodium falciparum [3]): 700 nM
CC50 at 24 h [4]: 2080 nM

CCC(C)[C@H](c1nc2ccccc2n1Cc1cn(-c2ccccc2F)nn1)N1C(=O)c2ccc(C)cc2C1=O (stereo partly specified)
inhibition at 1 µM (Plasmodium falciparum [1]): -23%
inhibition at 10 µM (Plasmodium falciparum [2]): 91%

Cc1ccc2c(c1)C(=O)N([C@H](CC(C)C)c1nc3ccccc3n1Cc1cn(-c3ccc(F)cc3)nn1)C2=O
inhibition at 1 µM (Plasmodium falciparum [1]): 0.3%
inhibition at 10 µM (Plasmodium falciparum [2]): 46%

CC(C)[C@H](c1nc2ccccc2n1Cc1cn(-c2ccc(F)cc2F)nn1)N1C(=O)c2ccccc2C1=O
inhibition at 1 µM (Plasmodium falciparum [1]): -12%
inhibition at 10 µM (Plasmodium falciparum [2]): 88%

CCC(C)[C@H](c1nc2ccccc2n1Cc1cn(Cc2ccccc2)nn1)N1C(=O)c2ccccc2C1=O (stereo partly specified)
IC50 [5]: > 100000 nM
inhibition at 1 µM (Plasmodium falciparum [1]): 35%
inhibition at 10 µM (Plasmodium falciparum [2]): 66%
IC50 (Plasmodium falciparum [6]): 810 nM
IC50 (Plasmodium falciparum [7]): 1880 nM
Activity (Plasmodium falciparum [8]): Dose dependent effect
Activity (Erythrocyte): Non-Toxic
selectivity ratio [9]: 123
Activity [10]: Non-Toxic
Activity (Plasmodium falciparum [11]): Active
Activity (Plasmodium falciparum [12]): Active
Activity (Plasmodium falciparum [13]): Active
FIC (Plasmodium falciparum [14]): 0.67

CCC(C)[C@H](c1nc2ccccc2n1Cc1cn(-c2c(F)c(F)c(F)c(F)c2F)nn1)N1C(=O)c2ccccc2C1=O (stereo partly specified)
inhibition at 1 µM (Plasmodium falciparum [1]): -44%
inhibition at 10 µM (Plasmodium falciparum [2]): 77%

CCC(C)C(c1nc2ccccc2n1Cc1cn(-c2ccc(F)cc2)nn1)N1C(=O)c2ccccc2C1=O (stereo unspecified)
IC50 (Plasmodium falciparum [3]): 900 nM
CC50 at 24 h [4]: 28800 nM

Cc1ccc2c(c1)C(=O)N([C@H](CC(C)C)c1nc3ccccc3n1Cc1cn(-c3ccc(Cl)cc3)nn1)C2=O
IC50 (Plasmodium falciparum [15]): 640 nM
IC50 [5]: > 100000 nM
inhibition at 1 µM (Plasmodium falciparum [1]): 43%
inhibition at 10 µM (Plasmodium falciparum [2]): 73%
IC50 (Plasmodium falciparum [6]): 740 nM
IC50 (Plasmodium falciparum [7]): 1710 nM
Activity (Plasmodium falciparum [8]): Dose dependent effect
Activity (Erythrocyte): Non-Toxic
selectivity ratio [9]: > 135
Activity [10]: Non-Toxic
Activity (Plasmodium falciparum [16]): Active
Activity (Plasmodium falciparum [17]): Active
Activity (Plasmodium falciparum [12]): Active
Activity (Plasmodium falciparum [13]): Active
Activity (Plasmodium falciparum [18]): 4.62
FIC (Plasmodium falciparum [19]): 0.87
FIC (Plasmodium falciparum [14]): 0.98
Activity (Plasmodium falciparum [20]): inactive
Activity (Plasmodium falciparum [21]): inactive
Activity (Plasmodium falciparum [22]): Active
Activity (Plasmodium berghei [23]): 3.6%
Activity (Plasmodium berghei [24]): Active
MST (Plasmodium berghei [25]): 11.07 days

COc1ccc(-n2cc(Cn3c([C@@H](CC(C)C)N4C(=O)c5ccc(C)cc5C4=O)nc4ccccc43)nn2)cc1
inhibition at 1 µM (Plasmodium falciparum [1]): -43%
inhibition at 10 µM (Plasmodium falciparum [2]): 65%

CCC(C)[C@H](c1nc2ccccc2n1Cc1cn(-c2ccc(F)cc2F)nn1)N1C(=O)c2ccc(C)cc2C1=O (stereo partly specified)
inhibition at 1 µM (Plasmodium falciparum [1]): 21%
inhibition at 10 µM (Plasmodium falciparum [2]): 94%
